Experimental data as given in the supplement of paper PMC10307832.

Assays:
Experiment in all cases: relative viability (nuclei count vs DMSO), 5 days (fraction); higher = more cells survive
[1] = compound: CC1CC(=O)N(C2=CN=C(N=C2N1C3CCCC3)NC4=C(C=C(C=C4)C(=O)NC5CCN(CC5)C)OC)C [NPK76-II-72-1] + CC(=O)c1c(C)c2cnc(Nc3ccc(N4CCNCC4)cn3)nc2n(C2CCCC2)c1=O [Palbociclib] (partner 0.5 µM)
Procedure, shortened: (§1)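 Lung cancer cell lines were pin-tool dosed in 1536-well plates on the day after seeding, with either a lone drug or a fixed anchor-drug dose plus five library-drug doses (not always all listed) in √10 steps. Nuclei were counted on 4× images after 5 days. Relative viability is the ratio of treated-well to vehicle-well nuclei counts, with each value a median of duplicate plates.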

[2] = compound: CC1CC(=O)N(C2=CN=C(N=C2N1C3CCCC3)NC4=C(C=C(C=C4)C(=O)NC5CCN(CC5)C)OC)C [NPK76-II-72-1] + NC(=O)Nc1cc(-c2cccc(F)c2)sc1C(=O)N[C@H]1CCCNC1 [AZD7762] (partner 0.2 µM)
Procedure, shortened: as §1

[3] = compound: CC[C@@H]1C(=O)N(C)c2cnc(Nc3ccc(C(=O)NC4CCN(C)CC4)cc3OC)nc2N1C1CCCC1 [BI-2536] + Nc1ncn([C@H]2C[C@H](O)[C@@H](CO)O2)c(=O)n1 [Decitabine] (partner 2 µM)
Procedure, shortened: as §1

[4] = compound: CC[C@@H]1C(=O)N(C)c2cnc(Nc3ccc(C(=O)NC4CCN(C)CC4)cc3OC)nc2N1C1CCCC1 [BI-2536] + C[C@@H](Oc1cc(-c2cnn(C3CCNCC3)c2)cnc1N)c1c(Cl)ccc(F)c1Cl [Crizotinib] (partner 1 µM)
Procedure, shortened: as §1

Row | Cell Line | relative viability ([1]; first compound 0.01 µM) | relative viability ([1]; first compound 0.03162 µM) | relative viability ([1]; first compound 0.1 µM) | relative viability ([1]; first compound 1 µM) | relative viability ([2]; first compound 0.01 µM) | relative viability ([2]; first compound 0.03162 µM) | relative viability ([2]; first compound 0.1 µM) | relative viability ([2]; first compound 1 µM) | relative viability ([3]; first compound 0.01 µM) | relative viability ([3]; first compound 0.03162 µM) | relative viability ([3]; first compound 0.1 µM) | relative viability ([3]; first compound 0.3162 µM) | relative viability ([3]; first compound 1 µM) | relative viability ([1]; first compound 0.3162 µM) | relative viability ([2]; first compound 0.3162 µM) | relative viability ([4]; first compound 0.01 µM) | relative viability ([4]; first compound 0.03162 µM) | relative viability ([4]; first compound 0.1 µM) | relative viability ([4]; first compound 0.3162 µM) | relative viability ([4]; first compound 1 µM)
1 | NCI-H522 | 0.866 | 1.02 | 0.981 | 1.1 | 0.945 | 0.826 | 0.786 | 0.809 | 0.715 | 0.626 | 0.698 | 0.312 | 0.358 |  |  |  |  |  |  | 
2 | HCC-15 | 0.722 | 0.849 | 0.705 | 0.745 | 1.18 | 1.32 | 0.549 | 1.23 | 0.652 | 0.504 | 0.246 | 0.124 | 0.151 | 0.694 | 1.16 | 0.82 | 0.64 | 0.426 | 0.134 | 0.118
3 | A-427 | 0.494 | 0.537 | 0.529 | 0.565 | 0.682 | 0.673 | 0.945 | 0.814 | 0.555 | 0.539 | 0.469 | 0.204 | 0.185 | 0.532 | 0.796 | 0.927 | 0.678 | 0.535 | 0.119 | 0.0896
4 | NCI-H2228 | 0.759 | 0.912 | 0.729 | 0.747 |  |  |  |  |  |  |  |  |  | 0.6 |  | 0.547 | 0.466 | 0.236 | 0.207 | 0.172
5 | NCI-H1734 | 0.328 | 0.348 | 0.345 | 0.384 | 0.531 | 0.557 | 0.676 | 0.667 | 0.5 | 0.457 | 0.37 | 0.157 | 0.164 | 0.321 | 0.532 | 0.644 | 0.548 | 0.35 | 0.204 | 0.158
6 | PC-14 | 0.514 | 0.593 | 0.438 | 0.545 | 0.356 | 0.312 | 0.337 | 0.344 | 0.227 | 0.172 | 0.09 | 0.0445 | 0.0408 | 0.505 | 0.358 | 0.852 | 0.793 | 0.792 | 0.116 | 0.0584
7 | NCI-H1915 | 0.508 | 0.606 | 0.529 | 0.536 | 0.709 | 0.751 | 0.665 | 0.726 | 0.261 | 0.238 | 0.227 | 0.108 | 0.119 | 0.502 | 0.647 | 0.931 | 0.549 | 0.549 | 0.116 | 0.108
8 | NCI-H1666 | 0.64 | 0.62 | 0.652 | 0.67 | 0.84 | 0.861 | 0.852 | 1.01 | 0.716 | 0.68 | 0.625 | 0.411 | 0.378 | 0.6 | 0.752 | 0.924 | 0.899 | 0.503 | 0.306 | 0.321
9 | HCC-366 | 0.386 | 0.438 | 0.386 | 0.458 | 0.233 | 0.388 | 0.375 | 0.468 | 0.407 | 0.408 | 0.248 | 0.036 | 0.0402 | 0.363 | 0.246 | 0.528 | 0.49 | 0.369 | 0.0121 | 0.0124
10 | SK-MES-1 | 0.325 | 0.342 | 0.26 | 0.385 |  |  |  |  | 0.335 | 0.351 | 0.186 | 0.164 | 0.184 | 0.313 |  | 0.997 | 1.01 | 0.86 | 0.212 | 0.18
11 | SW 1573 | 0.35 | 0.486 | 0.399 | 0.387 |  |  |  |  | 0.473 | 0.257 | 0.095 | 0.0944 | 0.0866 | 0.371 |  | 0.774 | 0.905 | 0.708 | 0.17 | 0.126
12 | NCI-H661 | 0.424 | 0.37 | 0.418 | 0.435 |  |  |  |  | 0.534 | 0.424 | 0.278 | 0.253 | 0.265 | 0.346 |  | 0.97 | 0.928 | 0.854 | 0.381 | 0.262
13 | PC-3 [JPC-3] | 0.562 |  | 0.519 | 0.597 | 0.766 |  | 0.738 | 0.751 | 0.775 | 0.752 | 0.757 | 0.362 | 0.408 | 0.549 | 0.917 | 1.04 | 0.846 | 0.871 | 0.33 | 0.244
14 | Calu-6 |  |  |  |  |  |  |  |  |  |  |  |  |  |  |  | 0.713 | 0.4 | 0.273 | 0.113 | 0.102
15 | LC-2-ad | 0.491 | 0.508 | 0.537 | 0.475 | 0.833 | 0.855 | 0.852 | 0.895 | 0.739 | 0.659 | 0.506 | 0.247 | 0.223 | 0.498 | 0.879 | 0.41 | 0.272 | 0.205 | 0.217 | 0.286
16 | CAL-12T | 0.334 | 0.498 | 0.517 | 0.491 | 0.65 | 0.718 | 0.506 | 0.724 |  |  |  |  |  | 0.404 | 0.645 | 0.532 | 0.295 | 0.409 | 0.128 | 0.155
17 | RERF-LC-KJ | 0.906 | 1.12 | 1.06 | 1.18 | 0.938 | 0.931 | 0.987 | 1.15 | 0.692 | 0.437 | 0.157 | 0.194 | 0.215 | 1.08 | 0.763 | 0.894 | 0.711 | 0.764 | 0.174 | 0.218
18 | NCI-H1650 | 0.314 | 0.428 | 0.458 | 0.407 |  |  |  |  | 0.388 | 0.327 | 0.278 | 0.11 | 0.148 | 0.31 |  | 0.948 | 0.742 | 0.208 | 0.143 | 0.11
